We go through 26 compounds from patent US12187699B2, “GSPT1 compounds and methods of use of the novel compounds” (BRISTOL-MYERS SQUIBB COMPANY, priority 2022, dated 2025).

T1 sequence (P15170 whole entry): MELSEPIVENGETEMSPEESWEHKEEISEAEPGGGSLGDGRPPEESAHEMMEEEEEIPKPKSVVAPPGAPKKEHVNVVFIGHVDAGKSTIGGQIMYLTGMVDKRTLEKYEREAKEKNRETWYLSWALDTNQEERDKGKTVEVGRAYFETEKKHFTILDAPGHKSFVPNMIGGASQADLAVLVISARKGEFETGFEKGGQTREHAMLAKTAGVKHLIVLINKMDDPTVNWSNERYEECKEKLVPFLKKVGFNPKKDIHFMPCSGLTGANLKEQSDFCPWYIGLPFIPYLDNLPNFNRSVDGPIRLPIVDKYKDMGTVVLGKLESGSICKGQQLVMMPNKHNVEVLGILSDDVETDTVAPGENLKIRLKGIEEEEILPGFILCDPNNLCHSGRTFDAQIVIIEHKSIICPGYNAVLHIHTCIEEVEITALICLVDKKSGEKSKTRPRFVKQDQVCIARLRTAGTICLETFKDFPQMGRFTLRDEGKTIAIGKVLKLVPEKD
T1 sequence (Q96SW2 whole entry): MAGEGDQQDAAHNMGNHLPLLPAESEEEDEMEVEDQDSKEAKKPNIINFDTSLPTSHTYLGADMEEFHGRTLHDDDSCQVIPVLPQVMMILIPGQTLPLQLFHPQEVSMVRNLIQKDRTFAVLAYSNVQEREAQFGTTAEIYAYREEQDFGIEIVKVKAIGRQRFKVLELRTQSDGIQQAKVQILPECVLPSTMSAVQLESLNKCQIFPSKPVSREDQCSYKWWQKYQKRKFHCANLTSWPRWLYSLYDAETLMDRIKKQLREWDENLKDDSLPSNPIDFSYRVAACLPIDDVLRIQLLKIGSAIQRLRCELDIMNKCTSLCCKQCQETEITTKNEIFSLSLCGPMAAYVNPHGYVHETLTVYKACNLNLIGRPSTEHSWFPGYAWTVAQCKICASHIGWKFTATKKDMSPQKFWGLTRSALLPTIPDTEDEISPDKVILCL
T1 sequence (Q16531 whole entry partner): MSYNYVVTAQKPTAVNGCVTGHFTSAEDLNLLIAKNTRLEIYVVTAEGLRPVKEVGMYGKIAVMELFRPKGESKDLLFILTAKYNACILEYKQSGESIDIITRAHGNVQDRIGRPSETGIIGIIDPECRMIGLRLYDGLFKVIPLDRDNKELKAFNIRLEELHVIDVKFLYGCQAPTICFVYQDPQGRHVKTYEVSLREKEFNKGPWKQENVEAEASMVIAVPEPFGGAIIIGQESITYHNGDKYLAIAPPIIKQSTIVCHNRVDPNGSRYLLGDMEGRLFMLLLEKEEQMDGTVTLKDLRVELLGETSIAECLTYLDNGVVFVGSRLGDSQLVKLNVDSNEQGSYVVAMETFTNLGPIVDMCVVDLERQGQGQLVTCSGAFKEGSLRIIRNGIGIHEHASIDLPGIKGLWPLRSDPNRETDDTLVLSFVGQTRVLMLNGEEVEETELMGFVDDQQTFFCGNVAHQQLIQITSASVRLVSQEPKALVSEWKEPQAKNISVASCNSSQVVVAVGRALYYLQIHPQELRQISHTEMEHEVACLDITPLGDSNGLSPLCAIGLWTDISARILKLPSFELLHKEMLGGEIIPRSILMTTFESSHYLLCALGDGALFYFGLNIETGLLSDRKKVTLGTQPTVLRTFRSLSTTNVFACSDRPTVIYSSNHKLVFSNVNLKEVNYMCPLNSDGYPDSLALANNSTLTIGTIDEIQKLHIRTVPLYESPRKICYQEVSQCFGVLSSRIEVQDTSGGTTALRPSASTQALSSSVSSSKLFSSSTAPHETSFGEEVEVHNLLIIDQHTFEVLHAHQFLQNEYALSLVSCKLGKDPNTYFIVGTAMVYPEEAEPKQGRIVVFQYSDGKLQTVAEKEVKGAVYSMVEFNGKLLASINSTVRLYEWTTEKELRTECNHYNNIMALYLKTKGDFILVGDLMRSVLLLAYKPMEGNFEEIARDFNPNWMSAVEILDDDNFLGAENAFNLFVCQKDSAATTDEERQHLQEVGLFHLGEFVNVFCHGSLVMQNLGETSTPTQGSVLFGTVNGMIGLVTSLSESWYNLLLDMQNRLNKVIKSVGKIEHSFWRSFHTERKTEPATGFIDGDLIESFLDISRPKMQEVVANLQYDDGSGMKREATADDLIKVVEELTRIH

This assay addresses T1, ePL-tagged GSPT1 (Homo sapiens, UniProt P15170+Q96SW2).
T1 construct: expressed in transfected cells; host or cells: DF15 multiple myeloma cells
In words: GSPT1 DiscoverX Degradation Assay. To be noted: DF15 multiple myeloma cells expressing ePL-tagged GSPT1; twenty hours; minimum of percent of control curve (Ataluren control Y constant=0, DMSO control = Y max). It is filed as cell-based. The protocol:
GSPT1 DiscoverX Degradation Assay.
Compounds were dispensed by an acoustic dispenser (ATS Acoustic Transfer System from EDC Biosystems) into a 384-well in a 10 pt dose response curve using 3 fold dilutions starting at 10 uM and going down to 0.0005 uM in DMSO. A DMSO control is added to the assay. […] Assay plates were incubated at 37° C. with 5% CO2 for twenty hours. After incubation, 25 μl of the InCELL Hunter™ Detection Reagent Working Solution (DiscoverX, cat #96-0002, Fremont, CA) was added to each well and incubated at room temperature for 30 minutes protected from light. After 30 minutes, luminescence was read on a PHERAstar luminometer (Cary, NC).
The minimum Y is reference to the Y constant. In the GSPT1 degradation assay, we use Ataluren® (luciferase inhibitor) as the control with a Y constant=0. The maximum limit is the Y max DMSO control. All percent of control GSPT1 degradation curves were processed and evaluated using Activity Base (IDBS).
For `O=C1CCC(N2Cc3cc(CNC(=O)Nc4ccc(OCc5ccc(CO)cc5)cc4)ccc3C2=O)C(=O)N1` (centres unmarked) [Example 1, 1-((2-(2,6-dioxopiperidin-3-yl)-1-oxoisoindolin-5-yl)methyl)-3-(4-((4-(hydroxymethyl)benzyl)oxy)phenyl)urea], the “GSPT1 Degradation Ymin” value was 3.00.

For `NCc1ccc(COc2ccc(NC(=O)NCc3ccc4c(c3)CN(C3CCC(=O)NC3=O)C4=O)cc2)cc1` (centres unmarked) [Example 2, 1-[4-[[4-(aminomethyl)phenyl]methoxy]phenyl]-3-[[2-(2,6-dioxo-3-piperidyl)-1-oxo-isoindolin-5-yl]methyl]urea], the “GSPT1 Degradation Ymin” value was found to be 4.34.

As for `NCc1ccccc1COc1ccc(NC(=O)NCc2ccc3c(c2)CN(C2CCC(=O)NC2=O)C3=O)cc1` (centres unmarked) [Example 3, 1-(4-((2-(aminomethyl)benzyl)oxy)phenyl)-3-((2-(2,6-dioxopiperidin-3-yl)-1-oxoisoindolin-5-yl)methyl)urea], the “GSPT1 Degradation Ymin” value came to 7.30.

In the case of `NCc1cccc(COc2ccc(NC(=O)NCc3ccc4c(c3)CN(C3CCC(=O)NC3=O)C4=O)cc2)c1` (centres unmarked) [Example 4, 1-(4-((3-(aminomethyl)benzyl)oxy)phenyl)-3-((2-(2,6-dioxopiperidin-3-yl)-1-oxoisoindolin-5-yl)methyl)urea], the “GSPT1 Degradation Ymin” value was found to be 6.80.

For the compound `Nc1cccc(COc2ccc(NC(=O)NCc3ccc4c(c3)CN(C3CCC(=O)NC3=O)C4=O)cc2)c1` (centres unmarked) [Example 5, 1-(4-((3-aminobenzyl)oxy)phenyl)-3-((2-(2,6-dioxopiperidin-3-yl)-1-oxoisoindolin-5-yl)methyl)urea], the “GSPT1 Degradation Ymin” value was 3.00.

Consider `O=C1CCC(N2Cc3cc(CNC(=O)Nc4ccc(OCc5ccccc5)cc4)ccc3C2=O)C(=O)N1` (centres unmarked) [Example 6, 1-[4-(benzyloxy)phenyl]-3-{[2-(2,6-dioxopiperidin-3-yl)-1-oxo-2,3-dihydro-1H-isoindol-5-yl]methyl}urea], for which the “GSPT1 Degradation Ymin” value was found to be 3.00.

Take `O=C1CCC(N2Cc3cc(CNC(=O)Nc4ccc(OCc5cccc(CO)c5)cc4)ccc3C2=O)C(=O)N1` (centres unmarked) [Example 7, 1-((2-(2,6-dioxopiperidin-3-yl)-1-oxoisoindolin-5-yl)methyl)-3-(4-((3-(hydroxymethyl)benzyl)oxy)phenyl)urea]: the “GSPT1 Degradation Ymin” value was found to be 4.00.

Consider `O=C1CCC(N2Cc3cc(CNC(=O)Nc4ccc(OCc5ccccc5CO)cc4)ccc3C2=O)C(=O)N1` (centres unmarked) [Example 8, 1-((2-(2,6-dioxopiperidin-3-yl)-1-oxoisoindolin-5-yl)methyl)-3-(4-((2-(hydroxymethyl)benzyl)oxy)phenyl)urea], for which the “GSPT1 Degradation Ymin” value was 4.00.

As to `O=C1CCC(N2Cc3cc(CNC(=O)Nc4ccc(OCc5ccccc5O)cc4)ccc3C2=O)C(=O)N1` (centres unmarked) [Example 9, 1-((2-(2,6-dioxopiperidin-3-yl)-1-oxoisoindolin-5-yl)methyl)-3-(4-((2-hydroxybenzyl)oxy)phenyl)urea], the “GSPT1 Degradation Ymin” value is listed as 3.50.

With `O=C1CCC(N2Cc3cc(CNC(=O)Nc4ccc(OCc5ccccc5O)cc4)ccc3C2=O)C(=O)N1` (centres unmarked) [Example 10, 1-((2-(2,6-dioxopiperidin-3-yl)-1-oxoisoindolin-5-yl)methyl)-3-(4-((2-hydroxybenzyl)oxy)phenyl)urea], the “GSPT1 Degradation Ymin” value is on record as 4.00.

With `NCc1ccc(COc2ccc(NC(=O)NCc3ccc4c(c3)CN(C3CCC(=O)NC3=O)C4=O)cc2)c(F)c1` (centres unmarked) [Example 11, 1-(4-{[4-(aminomethyl)-2-fluorophenyl]methoxy}phenyl)-3-{[2-(2,6-dioxopiperidin-3-yl)-1-oxo-2,3-dihydro-1H-isoindol-5-yl]methyl}urea], the “GSPT1 Degradation Ymin” value was 6.71.

With `Cc1cc(CN)ccc1COc1ccc(NC(=O)NCc2ccc3c(c2)CN(C2CCC(=O)NC2=O)C3=O)cc1` (centres unmarked) [Example 12, 1-(4-{[4-(aminomethyl)-2-methylphenyl]methoxy}phenyl)-3-{[2-(2,6-dioxopiperidin-3-yl)-1-oxo-2,3-dihydro-1H-isoindol-5-yl]methyl}urea], the “GSPT1 Degradation Ymin” value is listed as 5.39.

Take `NCc1ccc(COc2ccc(NC(=O)NCc3ccc4c(c3)CN(C3CCC(=O)NC3=O)C4=O)cc2)nc1` (centres unmarked) [Example 13, 1-(4-{[5-(aminomethyl)pyridin-2-yl]methoxy}phenyl)-3-{[2-(2,6-dioxopiperidin-3-yl)-1-oxo-2,3-dihydro-1H-isoindol-5-yl]methyl}urea]: the “GSPT1 Degradation Ymin” value is recorded as 6.75.

With `NCc1ccc(COc2ccc(NC(=O)NCc3ccc4c(c3)CN(C3CCC(=O)NC3=O)C4=O)cc2)cn1` (centres unmarked) [Example 14, 1-(4-{[6-(aminomethyl)pyridin-3-yl]methoxy}phenyl)-3-{[2-(2,6-dioxopiperidin-3-yl)-1-oxo-2,3-dihydro-1H-isoindol-5-yl]methyl}urea], the “GSPT1 Degradation Ymin” value stood at 5.83.

On to `NCc1cnc(COc2ccc(NC(=O)NCc3ccc4c(c3)CN(C3CCC(=O)NC3=O)C4=O)cc2)nc1` (centres unmarked) [Example 15, 1-(4-{[5-(aminomethyl)pyrimidin-2-yl]methoxy}phenyl)-3-{[2-(2,6-dioxopiperidin-3-yl)-1-oxo-2,3-dihydro-1H-isoindol-5-yl]methyl}urea], for which the “GSPT1 Degradation Ymin” value is 3.10.

Take `NCc1ccc(COc2ccc(NC(=O)NCc3ccc4c(c3)CN(C3CCC(=O)NC3=O)C4=O)cc2)nn1` (centres unmarked) [Example 16, 1-(4-{[6-(aminomethyl)pyridazin-3-yl]methoxy}phenyl)-3-{[2-(2,6-dioxopiperidin-3-yl)-1-oxo-2,3-dihydro-1H-isoindol-5-yl]methyl}urea]: the “GSPT1 Degradation Ymin” value is 12.67.

Turning to `Cc1cc(NC(=O)NCc2ccc3c(c2)CN(C2CCC(=O)NC2=O)C3=O)ccc1OCc1ccc(CN)cc1` (centres unmarked) [Example 17, 1-(4-{[4-(aminomethyl)phenyl]methoxy}-3-methylphenyl)-3-{[2-(2,6-dioxopiperidin-3-yl)-1-oxo-2,3-dihydro-1H-isoindol-5-yl]methyl}urea], the “GSPT1 Degradation Ymin” value was 15.91.

In the case of `NCc1ccc(COc2ccc(NC(=O)NCc3ccc4c(c3)CN(C3CCC(=O)NC3=O)C4=O)cc2F)cc1` (centres unmarked) [Example 18, 1-(4-{[4-(aminomethyl)phenyl]methoxy}-3-fluorophenyl)-3-{[2-(2,6-dioxopiperidin-3-yl)-1-oxo-2,3-dihydro-1H-isoindol-5-yl]methyl}urea], the “GSPT1 Degradation Ymin” value was 54.45.

`NCc1ccc(COc2ccc(NC(=O)NCc3ccc4c(c3)CN(C3CCC(=O)NC3=O)C4=O)nn2)cc1` (centres unmarked) [Example 19, 1-(6-{[4-(aminomethyl)phenyl]methoxy}pyridazin-3-yl)-3-{[2-(2,6-dioxopiperidin-3-yl)-1-oxo-2,3-dihydro-1H-isoindol-5-yl]methyl}urea]: the “GSPT1 Degradation Ymin” value worked out at 6.55.

With `NCc1ccc(COc2ccc(NC(=O)NCc3ccc4c(c3)CN(C3CCC(=O)NC3=O)C4=O)cn2)cc1` (centres unmarked) [Example 20, 1-(6-{[4-(aminomethyl)phenyl]methoxy}pyridin-3-yl)-3-{[2-(2,6-dioxopiperidin-3-yl)-1-oxo-2,3-dihydro-1H-isoindol-5-yl]methyl}urea], the “GSPT1 Degradation Ymin” value is listed as 7.50.

`CCc1cc(CN)ccc1COc1ccc(NC(=O)NCc2ccc3c(c2)CN(C2CCC(=O)NC2=O)C3=O)cc1` (centres unmarked) [Example 21, 1-(4-{[4-(aminomethyl)-2-ethylphenyl]methoxy}phenyl)-3-{[2-(2,6-dioxopiperidin-3-yl)-1-oxo-2,3-dihydro-1H-isoindol-5-yl]methyl}urea]: the “GSPT1 Degradation Ymin” value is recorded as 10.44.

For `CCCc1cc(CN)ccc1COc1ccc(NC(=O)NCc2ccc3c(c2)CN(C2CCC(=O)NC2=O)C3=O)cc1` (centres unmarked) [Example 22, 1-(4-{[4-(aminomethyl)-2-n-propylphenyl]methoxy}phenyl)-3-{[2-(2,6-dioxopiperidin-3-yl)-1-oxo-2,3-dihydro-1H-isoindol-5-yl]methyl}urea], the “GSPT1 Degradation Ymin” value amounted to 9.46.

In the case of `COc1cc(CN)ccc1COc1ccc(NC(=O)NCc2ccc3c(c2)CN(C2CCC(=O)NC2=O)C3=O)cc1` (centres unmarked) [Example 23, 1-(4-{[4-(aminomethyl)-2-methoxyphenyl]methoxy}phenyl)-3-{[2-(2,6-dioxopiperidin-3-yl)-1-oxo-2,3-dihydro-1H-isoindol-5-yl]methyl}urea], the “GSPT1 Degradation Ymin” value is on record as 8.85.

For the compound `CC(C)Oc1cc(CN)ccc1COc1ccc(NC(=O)NCc2ccc3c(c2)CN(C2CCC(=O)NC2=O)C3=O)cc1` (centres unmarked) [Example 24, 1-(4-{[4-(aminomethyl)-2-(propan-2-yloxy)phenyl]methoxy}phenyl)-3-{[2-(2,6-dioxopiperidin-3-yl)-1-oxo-2,3-dihydro-1H-isoindol-5-yl]methyl}urea], the “GSPT1 Degradation Ymin” value was found to be 10.04.

Regarding `NCc1ccc(COc2ccc(NC(=O)NCc3ccc4c(c3)CN(C3CCC(=O)NC3=O)C4=O)cc2)c(Cl)c1` (centres unmarked) [Example 25, 1-(4-{[4-(aminomethyl)-2-chlorophenyl]methoxy}phenyl)-3-{[2-(2,6-dioxopiperidin-3-yl)-1-oxo-2,3-dihydro-1H-isoindol-5-yl]methyl}urea], the “GSPT1 Degradation Ymin” value amounted to 5.50.

In the case of `NCc1ccc(COc2ccc(NC(=O)NCc3ccc4c(c3)CN(C3CCC(=O)NC3=O)C4=O)cc2)c(OC2COC2)c1` (centres unmarked) [Example 26, 1-(4-{[4-(aminomethyl)-2-(oxetan-3-yloxy)phenyl]methoxy}phenyl)-3-{[2-(2,6-dioxopiperidin-3-yl)-1-oxo-2,3-dihydro-1H-isoindol-5-yl]methyl}urea], the “GSPT1 Degradation Ymin” value came to 6.92.
